In US11485742B2, “2-azaspiro[3.4]octane derivatives as M4 agonists” (NOVARTIS AG, priority 2019, dated 2022):

Tests used:
Format in all cases: cell-based
[1] = biological target: T1, human cloned CHRM2 receptor (Homo sapiens, UniProt P08172); experiment: CHRM2 Ca++ Flux Assay (M2_CHO cells, agonist mode); conditions: M2 CHO cells; for EC50: agonist mode, geometric mean if tested more than once, read-out: M2 FDSS EC50; for Emax: read-out: M2 FDSS PA %
T1 construct: expressed in transfected cells; host or cells: CHO-K1 (M2_CHO)
T1 sequence (P08172 1-466): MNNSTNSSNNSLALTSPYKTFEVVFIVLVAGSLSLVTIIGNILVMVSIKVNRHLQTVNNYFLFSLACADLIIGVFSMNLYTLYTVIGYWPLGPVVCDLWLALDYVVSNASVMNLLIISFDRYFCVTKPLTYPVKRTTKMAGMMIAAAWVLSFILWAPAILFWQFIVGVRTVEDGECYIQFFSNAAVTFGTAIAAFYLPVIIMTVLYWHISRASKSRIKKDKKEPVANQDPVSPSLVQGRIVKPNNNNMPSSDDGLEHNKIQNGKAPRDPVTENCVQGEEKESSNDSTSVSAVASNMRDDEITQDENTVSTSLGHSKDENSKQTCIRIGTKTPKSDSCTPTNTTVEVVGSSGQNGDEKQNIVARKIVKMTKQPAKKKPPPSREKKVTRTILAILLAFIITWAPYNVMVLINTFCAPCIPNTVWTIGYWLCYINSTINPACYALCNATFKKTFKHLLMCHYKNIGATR
Method in brief: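 CHO-K1 cells stably expressing human CHRM2 were plated overnight at 12K cells/well and loaded with Ca++ dye for 1–2 h. They were then held 60 minutes in HBSS −Ca/−Mg, 20 mM HEPES, 2.5 mM probenecid, 20 μM ATP. Agonist-mode Ca++ flux was read over 3 minutes. Four-parameter fits of triplicates gave percent activity relative to carbachol EC100.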

[2] = biological target: T2, human cloned CHRM5 receptor (Homo sapiens, UniProt P08912); experiment: CHRM5 Ca++ Flux Assay (M5_CHO cells, agonist mode); conditions: for Emax: read-out: M5 FDSS PA %; for EC50: agonist mode, geometric mean if tested more than once, read-out: M5 FDSS EC50
T2 construct: expressed in transfected cells; host or cells: CHO (M5_CHO)
T2 sequence (P08912 1-532): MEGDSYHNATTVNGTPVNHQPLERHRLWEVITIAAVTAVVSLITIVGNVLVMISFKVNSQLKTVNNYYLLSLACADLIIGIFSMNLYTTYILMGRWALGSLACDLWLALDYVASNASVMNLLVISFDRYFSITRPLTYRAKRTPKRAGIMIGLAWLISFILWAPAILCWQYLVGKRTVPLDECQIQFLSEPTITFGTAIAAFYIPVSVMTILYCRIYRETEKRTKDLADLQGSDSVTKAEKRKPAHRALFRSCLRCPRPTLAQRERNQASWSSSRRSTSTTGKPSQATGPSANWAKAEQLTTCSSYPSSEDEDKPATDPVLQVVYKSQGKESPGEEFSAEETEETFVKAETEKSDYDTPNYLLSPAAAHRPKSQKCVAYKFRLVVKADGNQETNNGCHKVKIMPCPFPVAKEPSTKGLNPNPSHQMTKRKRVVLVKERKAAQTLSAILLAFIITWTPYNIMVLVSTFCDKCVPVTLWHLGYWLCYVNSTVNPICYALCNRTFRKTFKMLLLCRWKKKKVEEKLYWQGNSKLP
Method in brief: (§1)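 CHO-K1 cells stably expressing human M3 or M5 receptor, dye-loaded ≥1 h, treated with 11-point compound doses in triplicate; Ca++ flux read over 3 min (FDSS). Agonist-mode four-parameter fit; percent activity relative to carbachol EC100; repeat tests reported as geometric mean.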

[3] = biological target: T3, human cloned CHRM3 receptor (Homo sapiens, UniProt P20309); experiment: CHRM3 Ca++ Flux Assay (M3_CHO cells, agonist mode); conditions: for Emax: read-out: M3 FDSS PA %; for EC50: agonist mode, geometric mean if tested more than once, read-out: M3 FDSS EC50
T3 construct: expressed in transfected cells; host or cells: CHO-K1 (M3_CHO)
Method in brief: as §1

[4] = Percent Activity (PA) measured to EC100 of Carbachol

T3 sequence (P20309 whole entry): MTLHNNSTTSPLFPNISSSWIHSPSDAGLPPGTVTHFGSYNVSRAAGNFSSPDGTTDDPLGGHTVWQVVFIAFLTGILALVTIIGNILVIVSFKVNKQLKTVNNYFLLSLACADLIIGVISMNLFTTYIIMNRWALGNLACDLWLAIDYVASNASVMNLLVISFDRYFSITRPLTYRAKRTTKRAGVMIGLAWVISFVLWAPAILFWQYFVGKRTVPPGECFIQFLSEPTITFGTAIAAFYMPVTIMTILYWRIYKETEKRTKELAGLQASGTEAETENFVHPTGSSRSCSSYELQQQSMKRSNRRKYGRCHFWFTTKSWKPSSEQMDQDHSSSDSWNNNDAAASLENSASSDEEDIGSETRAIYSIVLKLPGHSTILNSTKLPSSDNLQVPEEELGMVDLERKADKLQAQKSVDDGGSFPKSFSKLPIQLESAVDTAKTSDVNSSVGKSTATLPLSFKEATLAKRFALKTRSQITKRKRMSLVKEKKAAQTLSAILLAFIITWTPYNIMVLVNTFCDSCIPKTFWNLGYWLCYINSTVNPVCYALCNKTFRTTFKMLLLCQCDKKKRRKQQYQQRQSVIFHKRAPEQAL

EC50 [1] [µM] | Emax [1, 4] [%] | Emax [2, 4] [%] | EC50 [2] [µM] | Emax [3, 4] [%] | EC50 [3] [µM] | M2 FDSS PA % [1, 4] [%] | M5 FDSS PA % [2, 4] [%] | M3 FDSS PA % [3, 4] [%] | Structure (SMILES)
9.7 | 25 | 0 | > 25 | 0 | > 25 | – | – | – | CC(C)(O)CCOc1ccc(F)cc1C1CCN([C@@H]2COC3(C2)CN(c2nncs2)C3)CC1 [Example 5P, (S)-4-(2-(1-(2-(1,3,4-thiadiazol-2-yl)-5-oxa-2-azaspiro[3.4]octan-7-yl)piperidin-4-yl)-4-fluorophenoxy)-2-methylbutan-2-ol]
15.2 | – | – | > 25 | – | > 25 | 38 | 0 | 0 | CC(C)(O)[C@H]1C[C@@H](Oc2ccc(F)cc2C2CCN([C@@H]3COC4(C3)CN(c3ncco3)C4)CC2)C1 (single isomer, unassigned) [Example 4U, 2-((1R,3s)-3-(4-fluoro-2-(1-((S)-2-(oxazol-2-yl)-5-oxa-2-azaspiro[3.4]octan-7-yl)piperidin-4-yl)phenoxy)cyclobutyl)propan-2-ol or 2-((1S,3r)-3-(4-fluoro-2-(1-((S)-2-(oxazol-2-yl)-5-oxa-2-azaspiro[3.4]octan-7-yl)piperidin-4-yl)phenoxy)cyclobutyl)propan-2-ol]
> 25 | 31 | 0 | > 25 | 0 | > 25 | – | – | – | Fc1ccc(C2CCN([C@@H]3COC4(C3)CN(c3ncco3)C4)CC2)c(OC2COC2)c1 [Example 4S, (S)-7-(4-(4-fluoro-2-(oxetan-3-yloxy)phenyl)piperidin-1-yl)-2-(oxazol-2-yl)-5-oxa-2-azaspiro[3.4]octane]

Continued, compound first:

Structure (SMILES) | EC50 [1] [µM] | Emax [1, 4] [%] | Emax [2, 4] [%] | EC50 [2] [µM] | Emax [3, 4] [%] | EC50 [3] [µM] | M2 FDSS PA % [1, 4] [%] | M5 FDSS PA % [2, 4] [%] | M3 FDSS PA % [3, 4] [%]
c1ccc(C2CCN([C@@H]3COC4(C3)CN(c3ncco3)C4)CC2)c(O[C@H]2CCOC2)c1 [Example 4H, (S)-2-(oxazol-2-yl)-7-(4-(2-(((S)-tetrahydrofuran-3-yl)oxy)phenyl)piperidin-1-yl)-5-oxa-2-azaspiro[3.4]octane] | > 25 | 20 | 0 | > 25 | 0 | > 25 | – | – | –
Fc1cc(F)c(OC2CCOCC2)c(C2CCN([C@@H]3COC4(C3)CN(c3nnco3)C4)CC2)c1 [Example 2BB, (S)-7-(4-(3,5-difluoro-2-((tetrahydro-2H-pyran-4-yl)oxy)phenyl)piperidin-1-yl)-2-(1,3,4-oxadiazol-2-yl)-5-oxa-2-azaspiro[3.4]octane] | 4.85 | 27 | 0 | > 25 | 0 | > 25 | – | – | –
Fc1ccc(OCC2C3COCC32)c(C2CCN([C@@H]3COC4(C3)CN(c3nnco3)C4)CC2)c1 (stereo partly drawn) [Example 2Z, (7S)-7-(4-(2-((3-oxabicyclo[3.1.0]hexan-6-yl)methoxy)-5-fluorophenyl)piperidin-1-yl)-2-(1,3,4-oxadiazol-2-yl)-5-oxa-2-azaspiro[3.4]octane] | 0.76 | 24 | 0 | > 25 | 0 | > 25 | – | – | –
c1ccc(C2CCN([C@@H]3COC4(C3)CN(c3ncco3)C4)CC2)c(OC2CCOCC2)c1 [Example 4J, (S)-2-(oxazol-2-yl)-7-(4-(2-((tetrahydro-2H-pyran-4-yl)oxy)phenyl)piperidin-1-yl)-5-oxa-2-azaspiro[3.4]octane] | > 25 | 0 | 0 | > 25 | 0 | > 25 | – | – | –
c1ccc(C2CCN([C@@H]3COC4(C3)CN(c3ncco3)C4)CC2)c(-c2cncnc2)c1 [Example 4R, (S)-2-(oxazol-2-yl)-7-(4-(2-(pyrimidin-5-yl)phenyl)piperidin-1-yl)-5-oxa-2-azaspiro[3.4]octane] | 0.203 | 12 | 0 | > 25 | 0 | > 25 | – | – | –
